The values that follow come from article PMC6696338, “Pharmacokinetic and Metabolism Studies of Monomethyl Auristatin F via Liquid Chromatography-Quadrupole-Time-of-Flight Mass Spectrometry” (Molecules, 2019).

Non-standard residues stand in square brackets, D forms with d. Residues, ends and D or L forms follow the SMILES beside them. Dolaproine = CO[C@@H]([C@@H]1CCCN1)[C@@H](C)C(=O)O; Dil = CC[C@H](C)[C@H](NC)[C@@H](CC(=O)O)OC; NMeV = CN[C@H](C(=O)O)C(C)C

The nature of data set [1]: Pharmacokinetic study of MMAF in rat (IV and PO), plasma by LC-TOF-MS/MS. Format: in vivo. As to conditions: male SD rat. The method, then:
Twenty microliters of rat plasma samples were placed in a cluster tube. Four microliters (make-up solution) of DMSO were added to the cluster tube, and 100 μL of ACN was also added. The mixture was capped and vortexed, and then centrifuged for 5 min at 12,000 rpm (4 °C). Following the centrifugation, 70 μL supernatant was transferred to an LC vial and diluted by adding 140 μL of DW.
(§1) LC-TOF-MS/MS was consisted of a Shimadzu CBM-20A/LC-20AD chromatographic system (Shimadzu Scientific Instruments, Columbia, MD, USA), with an eksigent CTC HTS PAL auto-sampler (Sciex, Redwood City, CA, USA) and a quadrupole time-of-flight TripleTOF 5600 mass spectrometer (Sciex, Redwood City, CA, USA). Kinetex XB-C18 column (2.1 × 50 mm, Phenomenex) for quantification and Kinetex XB-C18 column (2.1 × 100 mm, Phenomenex) for metabolite profiling studies were used as analytical columns. The LC mobile phase consisted of DW containing 0.1% formic acid (phase A) and ACN containing 0.1% formic acid (phase B). The flow rate was 0.4 mL/min for quantification and 0.3 mL/min for Met ID while maintaining the column temperature at 55 °C. Injection volume was 10 μL.
(1) Quantification: For TOF-MS/MS scan, the scan range was m/z 100~900. The protonated [M + H]^+ ion of MMAF (m/z 732.5) was used and its product ions at m/z 700.5 and m/z 520.3 were selected as the quantitative ion and the qualitative ion, respectively. The source temperature was set at 500 °C. The curtain gas flow was set at 30 L/min. The ion spray voltage (IVSF) was set at 5500 V. The declustering potential (DP) was 100 V, and the collision energy (CE) was 36 V.
Data acquisition and LC-MS/MS operation were conducted using Analyst® TF Version 1.6 (Sciex, Redwood City, CA, USA). MultiQuant® Version 2.1.1 (Sciex, Redwood City, CA, USA) was used for peak integration for MMAF quantification. The descriptive statistics for the qualification studies were calculated with Excel 2015 (Microsoft, Seoul, Korea). Pharmacokinetic parameters were calculated in a non-compartmental analysis using WinNonlin® version 8.0.0 (Certara, Princeton, NJ, USA). PeakView® Version 2.2 (Sciex, Redwood City, CA, USA) and MetabolitePilot^TM Version 2.0.2 (Sciex, Redwood City, CA, USA) were used for the structural elucidation of metabolites. MedChem Designer (Simulations Plus, Inc, Lancaster, CA, USA) was used for in silico metabolite prediction.
Male Sprague-Dawley (SD) rats were used for rat PK studies of MMAF. For rat PK studies of MMAF, rats were distributed into two different groups (5 mg/kg IV (intravenous) group and 10 mg/kg PO (oral) group). After IV or PO dose, blood samples were collected to heparinized tubes and centrifuged immediately at 10,000 rpm for 5 min. The sampling times were 0, 2, 5, 15, 30, 60, 90, 120, 240, 360, and 1440 min for IV PK and 0, 5, 15, 30, 60, 90, 120, 240, 360, and 1440 min for PO PK. The supernatant was transferred to a clean tube and stored at −80 °C until analysis.

The conditions of data set [2]: qualitative comparison; cited from earlier work. The text has this:
Auristatin is a microtubule-destroying drug. It was derived from marine shell-less mollusk Dolabella auricularia called dolastatins (Figure 1). After the dolastatin was found, it has been studied in the treatment of cancer, malaria, and fungus. After the successful total synthesis of dolastatin 10, various derivatives have been synthesized, such as monomethyl auristatin E (MMAE) and monomethyl auristatin F (MMAF). MMAE and MMAF were developed by Seattle Genetics and used as payloads for ADC. MMAF and MMAE have their advantages and disadvantages. MMAE is m ...

The nature of data set [3]: In vitro metabolite profiling in human liver microsome. As to conditions: 90 min, 37 °C. Format: in vitro ADME.
Text: as §1
(§2) (2) Metabolite profiling: The mass spectrometric conditions for the metabolite profiling of MMAF were as follows. The information-dependent analysis (IDA) with high-resolution TOF full scan was operated with electrospray ionization (ESI) in positive ion mode using real-time multiple mass defect filtering (MDF) and dynamic background subtraction. The IDA method consisted of TOF scan (m/z 50 to 1200) for the detection of MMAF and its metabolites. The method was followed by 6 TOF-MS/MS dependent scans (m/z 50 to 1200) for structural elucidation. […]
(Liver microsomes are a subcellular fraction often used to study metabolism.)

Data set [4] in a line: In vitro metabolite profiling in rat liver microsome. The class given is in vitro ADME. As to conditions: 90 min, 37 °C.
Text: as §1, §2

Data set [5] is described as follows: Preliminary stability tests of MMAF in rat plasma. Format: in vitro ADME. As to conditions: for Short-term stability, mean concentration / Short-term stability, accuracy %: RT, 4 h; for Short-term stability, accuracy % / Long-term stability, accuracy % / Freeze-thaw stability, accuracy %: n = 3; for Freeze-thaw stability, accuracy %: three cycles. The protocol:
Preliminary stability tests were performed in rat plasma under 4 different conditions, including short-term, freeze-thaw, long-term, and post-preparative stability. The short-term stability was assessed at room temperature (RT) for 4 hrs. The long-term stability was assessed by comparing the freshly prepared control samples to the samples kept frozen for 4 weeks at −80 °C. For the freeze-thaw stability, the stability-test samples were subjected to three freeze and thaw cycles at −80 °C. The post-preparative stability was assessed for the QC samples kept in an auto-sampler (10 °C) for 12 hrs.
The acceptance criteria for all of the qualification were within ±15% of the precision and accuracy.

Setting [6] is: processed rat plasma QC in auto-sampler, 10 °C, high QC.
Setting [7] is: processed rat plasma QC in auto-sampler, 10 °C, low QC.

As for `CC[C@H](C)[C@@H]([C@@H](CC(=O)N1CCC[C@H]1[C@H](OC)[C@@H](C)C(=O)N[C@@H](Cc1ccccc1)C(=O)O)OC)N(C)C(=O)[C@@H](NC(=O)[C@@H](NC)C(C)C)C(C)C` [MMAF, monomethyl auristatin F] (H-[NMeV]V[Dil][Dolaproine]F-OH), the clearance in data set [1] (Sprague-Dawley, plasma, IV 5 mg/kg, non-compartmental analysis, read-out: Clearance (CL)) was 77.3 mL/min/kg. The Vd in data set [1] (Sprague-Dawley, plasma, IV 5 mg/kg, non-compartmental analysis, read-out: Vss) was found to be 1.06 L/kg. For the same molecule, the AUC(0-t) (commonly the area under the concentration-time curve up to a stated or last time point) in data set [1] (Sprague-Dawley, IV 5 mg/kg, plasma, non-compartmental analysis) was 1090 ng·h/mL. For the same molecule, the highest level in data set [1] (Sprague-Dawley, IV 5 mg/kg, plasma, non-compartmental analysis, LC-TOF-MS/MS) (Cmax) was 8280 ng/mL. The same molecule displayed a Bioavailability in data set [1] (PO 10 mg/kg vs IV 5 mg/kg) of 0%. Moreover, in data set [1] (PO 10 mg/kg, plasma), the “Systemic exposure after oral dosing” value is listed as “no systemic exposure was observed”. Besides, the “Aggregation tendency relative to MMAE” value in data set [2] is listed as “lower aggregation tendency”. The “Hydrophilicity relative to MMAE” value in data set [2] is listed as “more hydrophilic”. Further, in data set [2], the “Systemic toxicity relative to MMAE” value is listed as “lower systemic toxicity”. The “Number of metabolites tentatively identified” value in data set [3] is “seven”; in data set [4], “four”. In addition, the “Post-preparative stability, area ratio after 12 h as % of first injection” value in data set [5] (setting [6]) stood at 99.98%; in data set [5] (setting [7]), 97.93%. For the same molecule, the “Post-preparative stability, area ratio of 10th injection (after 12hr)” value in data set [5] (setting [6]) came to 7.43; in data set [5] (setting [7]), 0.61. Further, the “Post-preparative stability, area ratio of 1st injection” value in data set [5] (setting [6]) came out at 7.43. The “Short-term stability, mean concentration” value in data set [5] (rat plasma, high QC 1820 ng/mL, LC-TOF-MS/MS, mean of n = 3) is 1884.23 ng/mL; in data set [5] (rat plasma, low QC 165.46 ng/mL, LC-TOF-MS/MS, mean of n = 3) it was 149.90 ng/mL. Also, the “Short-term stability, accuracy %” value in data set [5] (rat plasma, high QC 1820 ng/mL) amounted to 103.53%; in data set [5] (rat plasma, low QC 165.46 ng/mL) it was 90.60%. The “Long-term stability, mean concentration” value in data set [5] (rat plasma, −80 °C, 4 weeks, high QC 1820 ng/mL, LC-TOF-MS/MS, mean of n = 3) is 1657.96 ng/mL. Moreover, the “Long-term stability, accuracy %” value is given as 91.10% in data set [5] (rat plasma, −80 °C, 4 weeks, high QC 1820 ng/mL) and 95.46% in data set [5] (rat plasma, −80 °C, 4 weeks, low QC 165.46 ng/mL). Also, the “Freeze-thaw stability, accuracy %” value in data set [5] (rat plasma, −80 °C, high QC 1820 ng/mL) is given as 91.10%; in data set [5] (rat plasma, −80 °C, low QC 165.46 ng/mL), 95.46%. Further, in data set [5] (short-term, long-term, freeze/thaw and post-preparative conditions, acceptance ±15%), the “Stability in rat plasma (in words)” value is on record as “stable”.
With monomethyl auristatin E [MMAE], in data set [2], the “IC50 relative to MMAF” value is “lower IC50 than MMAF” and the “Membrane permeability relative to MMAF” value is listed as “more membrane-permeable”.
